According to ChEMBL document CHEMBL1933019, “Cell-based and in-silico studies on the high intrinsic activity of two boron-containing salbutamol derivatives at the human β₂-adrenoceptor” (Bioorg Med Chem, 2012):

How the values were obtained:
[1] = molecular target: T1, Beta-2 adrenergic receptor (Homo sapiens, UniProt P07550); assay: Displacement of [3H]-DHA from recombinant human beta2 adrenoceptor expressed in HEK293T cells; assay type: cell-based, HEK-293T
[2] = molecular target: T1, Beta-2 adrenergic receptor; assay: Agonist activity at recombinant human beta2 adrenoceptor expressed in HEK293T cells assessed as increase in IBMX-induced cAMP accumulation using [3H]-cAMP after 30 mins by liquid scintillation counting; assay type: functional, cell-based, HEK-293T

T1 sequence (P07550 whole entry): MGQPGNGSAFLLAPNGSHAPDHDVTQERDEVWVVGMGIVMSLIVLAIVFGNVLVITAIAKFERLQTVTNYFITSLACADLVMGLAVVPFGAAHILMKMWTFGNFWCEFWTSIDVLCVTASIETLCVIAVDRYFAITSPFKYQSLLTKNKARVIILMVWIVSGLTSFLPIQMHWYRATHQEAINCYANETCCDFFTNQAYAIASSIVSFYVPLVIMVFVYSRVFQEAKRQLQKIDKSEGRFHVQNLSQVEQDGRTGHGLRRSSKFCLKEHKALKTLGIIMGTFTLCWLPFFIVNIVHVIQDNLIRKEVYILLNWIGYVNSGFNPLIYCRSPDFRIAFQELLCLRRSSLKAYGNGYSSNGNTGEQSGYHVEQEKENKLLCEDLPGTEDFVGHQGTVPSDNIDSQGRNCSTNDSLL

`CC(C)(C)NC[C@H](O)c1ccc2c(c1)C[OH+][B-](O)(O)O2` was tested, and the Ki [1] was 3890 nM and the EC50 [2] was 166 nM.
Work on `CC(C)(C)NC[C@H](O)c1ccc2c(c1)C[OH+][B-](O)(c1ccccc1)O2` (some centres undefined) yielded a Ki [1] of 6610 nM and an EC50 [2] of 138 nM.
